Target: T1, TET1 (TET1-CD) (Homo sapiens, UniProt Q8NFU7)
T1 construct: TET1 protein
T1 sequence (Q8NFU7 1418-2136 limits assumed): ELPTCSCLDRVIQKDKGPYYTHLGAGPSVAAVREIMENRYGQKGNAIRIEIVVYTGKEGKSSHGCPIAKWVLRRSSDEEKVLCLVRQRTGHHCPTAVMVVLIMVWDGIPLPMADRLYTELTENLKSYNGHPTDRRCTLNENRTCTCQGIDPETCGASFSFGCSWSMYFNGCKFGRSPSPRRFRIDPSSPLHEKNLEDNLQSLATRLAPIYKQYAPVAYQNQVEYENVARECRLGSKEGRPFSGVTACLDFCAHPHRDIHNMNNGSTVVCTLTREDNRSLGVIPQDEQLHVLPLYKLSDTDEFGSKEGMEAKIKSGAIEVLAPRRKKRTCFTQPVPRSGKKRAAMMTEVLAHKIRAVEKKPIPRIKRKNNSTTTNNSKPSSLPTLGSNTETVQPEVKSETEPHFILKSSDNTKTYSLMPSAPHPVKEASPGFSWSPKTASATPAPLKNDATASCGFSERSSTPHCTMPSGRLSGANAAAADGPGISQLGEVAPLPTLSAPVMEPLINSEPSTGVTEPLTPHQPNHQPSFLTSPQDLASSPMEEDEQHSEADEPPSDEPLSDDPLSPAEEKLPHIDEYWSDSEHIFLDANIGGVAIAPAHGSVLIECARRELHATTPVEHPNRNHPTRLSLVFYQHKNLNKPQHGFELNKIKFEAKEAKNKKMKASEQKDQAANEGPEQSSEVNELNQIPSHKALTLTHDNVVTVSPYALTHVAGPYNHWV
Assay: SPR competition against auranofin
Format: binding
Settings: competes with auranofin, 2-OG analogue

## O=C(O)CNC(=O)C(=O)O [NOG]
  SPR competition against auranofin: both NOG and Fe (II) compete with auranofin for binding to TET1-CD
